Data from the NIST ThermoML archive (doi:10.1016/j.tca.2016.08.008).
Numbers after ± are expanded uncertainties.

Test: molar heat capacity at constant pressure
Conditions: 101.33 kPa, Metastable crystal, Small sample (50 mg) DSC

O=P([O-])([O-])[O-].[Tb+3] [terbium orthophosphate]
Conditions	molar heat capacity at constant pressure [J/K/mol]
683.9 K	136.8 ± 3.4
688.9 K	136.9 ± 3.4
693.9 K	137.1 ± 3.4
698.9 K	137.5 ± 3.4
700 K	139.9 ± 4.6
703.9 K	138 ± 3.4
708.9 K	138.4 ± 3.4
713.9 K	138.9 ± 3.4
718.9 K	139.3 ± 3.4
720 K	140.4 ± 4.7
723.9 K	139.1 ± 3.4
728.9 K	139.3 ± 3.4
733.9 K	139.2 ± 3.4
738.9 K	139.5 ± 3.4
740 K	140.8 ± 4.7
743.9 K	139.8 ± 3.4
748.9 K	140.3 ± 3.4
753.9 K	140.6 ± 3.4
758.9 K	141.1 ± 3.5
760 K	141.2 ± 4.7
763.9 K	141.3 ± 3.5
768.9 K	141.7 ± 3.5
773.9 K	141.7 ± 3.5
778.9 K	141.7 ± 3.5
780 K	141.6 ± 4.7
783.9 K	141.5 ± 3.5
788.9 K	141.5 ± 3.5
793.9 K	141.8 ± 3.5
798.9 K	142.4 ± 3.5
800 K	142 ± 4.7
803.9 K	142.5 ± 3.5
808.9 K	142.6 ± 3.5
813.9 K	142.7 ± 3.5
818.9 K	143.1 ± 3.5
820 K	142.4 ± 4.7
823.9 K	143 ± 3.5
828.9 K	142.9 ± 3.5
833.9 K	143.1 ± 3.5
838.9 K	142.9 ± 3.5
840 K	142.7 ± 4.7
843.9 K	143.2 ± 3.5
848.9 K	142.9 ± 3.5
853.9 K	142.8 ± 3.5
858.9 K	142.7 ± 3.5
860 K	143 ± 4.7
863.9 K	142.4 ± 3.5
868.9 K	142 ± 3.5
873.9 K	141.5 ± 3.5
878.9 K	141.9 ± 3.5
880 K	143.3 ± 4.8
883.9 K	141.8 ± 3.5
888.9 K	141.7 ± 3.5
893.9 K	141.6 ± 3.5
898.9 K	141.8 ± 3.5
900 K	143.6 ± 4.8
903.9 K	141.5 ± 3.5
908.9 K	141.4 ± 3.5
913.9 K	141.7 ± 3.5
918.9 K	141.8 ± 3.5
920 K	143.8 ± 4.8
923.9 K	142.1 ± 3.5
928.9 K	142.7 ± 3.5
933.9 K	143 ± 3.5
938.9 K	142.9 ± 3.5
940 K	144 ± 4.8
943.9 K	142.4 ± 3.5
948.9 K	142.6 ± 3.5
953.9 K	142.6 ± 3.5
958.9 K	143.1 ± 3.5
960 K	144.3 ± 4.8
963.9 K	142.7 ± 3.5
968.9 K	142.8 ± 3.5
973.9 K	142.8 ± 3.5
978.9 K	142.6 ± 3.5
980 K	144.5 ± 4.8
983.9 K	142.5 ± 3.5
988.9 K	142.5 ± 3.5
993.9 K	142.6 ± 3.5
998.9 K	142.9 ± 3.5
1000 K	144.7 ± 4.8
1003.9 K	143 ± 3.5
1008.9 K	143.3 ± 3.5
1009 K	144.8 ± 4.8
